{
  "source": "PubChem BioAssay AID1259338",
  "about": "(Broad Institute, 2017)",
  "note": "Activity calls are given as the source filed them.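 How the source made its calls: active means compounds lowering the signal with a fitted AC50 at or below a set concentration limit; inconclusive means flat curve with 30 to 70% inhibition, or a poor fit; inactive means the rest.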",
  "data": [
    {"target": "Caspase recruitment domain-containing protein 9 (Homo sapiens) + E3 ubiquitin-protein ligase TRIM62 (Homo sapiens) (UniProt Q9H257+Q9BVG3)", "sequence (Q9BVG3 whole entry, looked up, the tested form may be a part)": "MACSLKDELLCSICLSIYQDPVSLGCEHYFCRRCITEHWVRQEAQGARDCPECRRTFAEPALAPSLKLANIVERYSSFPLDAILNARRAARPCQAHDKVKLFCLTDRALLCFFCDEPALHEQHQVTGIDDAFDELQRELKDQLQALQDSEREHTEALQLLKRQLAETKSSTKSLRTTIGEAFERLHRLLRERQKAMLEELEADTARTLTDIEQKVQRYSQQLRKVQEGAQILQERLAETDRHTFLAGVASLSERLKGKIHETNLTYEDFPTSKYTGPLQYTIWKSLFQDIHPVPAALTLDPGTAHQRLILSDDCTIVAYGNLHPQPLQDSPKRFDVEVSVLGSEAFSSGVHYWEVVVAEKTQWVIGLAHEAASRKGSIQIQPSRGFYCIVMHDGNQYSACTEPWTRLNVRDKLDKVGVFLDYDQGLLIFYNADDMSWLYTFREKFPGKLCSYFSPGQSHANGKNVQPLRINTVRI", "sequence (Q9H257 whole entry, looked up, the tested form may be a part)": "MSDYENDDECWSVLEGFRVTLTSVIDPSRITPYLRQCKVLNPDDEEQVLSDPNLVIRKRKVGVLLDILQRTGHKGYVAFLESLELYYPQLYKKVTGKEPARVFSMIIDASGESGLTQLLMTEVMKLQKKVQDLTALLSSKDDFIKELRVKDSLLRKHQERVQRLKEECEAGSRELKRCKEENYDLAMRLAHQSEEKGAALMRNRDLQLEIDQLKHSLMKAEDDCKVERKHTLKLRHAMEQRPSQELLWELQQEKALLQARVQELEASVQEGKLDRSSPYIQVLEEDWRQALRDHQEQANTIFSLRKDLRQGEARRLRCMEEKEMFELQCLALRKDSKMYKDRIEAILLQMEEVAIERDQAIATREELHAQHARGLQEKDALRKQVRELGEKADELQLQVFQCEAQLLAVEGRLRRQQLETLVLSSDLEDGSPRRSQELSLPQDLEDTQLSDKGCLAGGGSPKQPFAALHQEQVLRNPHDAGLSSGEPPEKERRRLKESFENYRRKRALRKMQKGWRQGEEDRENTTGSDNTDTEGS", "experiment": "CARD9/TRIM62 protein interaction inhibitors – cell lysate, HEK293FT lysates, Luminex bead readout, dose response (AID 1259338); on activity change, negative = inhibition: reference of the scale not given here", "settings": "Luminex bead PPI, MFI", "values": [
      {"smiles": "Cc1ccccc1C(=O)Nc1cnc(N2CCC(C(N)=O)(N3CCCCC3)CC2)c(C(=O)O)c1", "AC50": "7.55 µM"},
      {"smiles": "C=CC(=O)N1CCCC2(CCN(CCN3CCCC3)C2=O)C1", "note": "(centres undefined)", "AC50": "1.53 µM"},
      {"smiles": "O=C(COC(=O)c1ccc(F)cc1F)Nc1ncccn1", "AC50": "38.8 µM"},
      {"smiles": "COCC(=O)N1CCCC2(CCN(CCN3CCCC3)C2=O)C1", "note": "(centres undefined)", "AC50": "> 160 µM (inactive)"},
      {"smiles": "O=C1c2ccccc2-c2nc3ccccc3nc21", "AC50": "> 160 µM (inactive)"},
      {"smiles": "NC(=O)C1(N2CCCCC2)CCN(c2ncc(NC(=O)c3ccccc3F)cc2C(=O)O)CC1", "AC50": "18 µM"},
      {"smiles": "O=C(CN1CCOC1=O)N1CCC2(CCC(=O)N(CCCn3ccnc3)C2)CC1", "AC50": "> 160 µM (inactive)"},
      {"smiles": "COc1ccc(S(=O)(=O)Nc2ccc3c(c2)C(=O)N([C@H](C)CO)C[C@H](C)[C@@H](CN(C)CC2CCCCC2)OCCCC[C@H](C)O3)cc1", "AC50": "> 160 µM (inactive)"},
      {"smiles": "COc1ccc(S(=O)(=O)N2CCOCC2)cc1NC(=O)c1cccc(-n2cccc2)c1", "AC50": "77.6 µM"},
      {"smiles": "O=C(NCC1CCCO1)c1cc(-c2ccco2)nc2ccccc12", "note": "(centres undefined)", "AC50": "> 160 µM (inactive)"},
      {"smiles": "Cc1ccc(C(=O)Nc2cnc(N3CCC(C(N)=O)(N4CCCCC4)CC3)c(C(=O)O)c2)cc1", "AC50": "8.64 µM"},
      {"smiles": "NC(=O)C1(N2CCCCC2)CCN(c2ncc(NC(=O)c3ccc(Cl)cc3)cc2C(=O)O)CC1", "AC50": "6.01 µM"},
      {"smiles": "NC(=O)C1(N2CCCCC2)CCN(c2ncc(NC(=O)c3ccc(F)cc3)cc2C(=O)O)CC1", "AC50": "44.2 µM"},
      {"smiles": "COc1ccc(S(=O)(=O)N2CCN(C(=O)c3cc4c(s3)CCC4)CC2)cc1", "AC50": "63.1 µM"},
      {"smiles": "NC(=O)C1(N2CCCCC2)CCN(c2ccc(NC(=O)c3cccc(Cl)c3)cc2C(=O)O)CC1", "AC50": "14.8 µM"},
      {"smiles": "Cc1c(C(=O)OCC2CCCO2)[nH]c2c1C(=O)CC(c1ccco1)C2", "note": "(centres undefined)", "AC50": "> 160 µM (inactive)"},
      {"smiles": "Cc1ccc(-c2nnc(-c3nc(Nc4nc5ccccc5s4)c4ccccc4n3)o2)cc1", "AC50": "42.1 µM"},
      {"smiles": "COc1c(C(=O)O)csc1Br", "AC50": "29.6 µM"},
      {"smiles": "NC(=O)C1(N2CCCCC2)CCN(c2ccc(NC(=O)c3ccccc3F)cc2C(=O)O)CC1", "AC50": "42 µM"},
      {"smiles": "NC(=O)c1ccc(CN2C(=O)C3(CCNCC3)Nc3ccccc32)cc1", "AC50": "> 160 µM (inactive)"},
      {"smiles": "O=C(Nc1nccs1)c1cc(-c2ccccn2)nc2c(Cl)cccc12", "AC50": "> 160 µM (inactive)"},
      {"smiles": "NC(=O)C1(N2CCCCC2)CCN(c2ncc(NC(=O)c3cccc(Cl)c3)cc2C(=O)O)CC1", "AC50": "6.54 µM"},
      {"smiles": "O=C(NCc1cccnc1)c1ccccc1-c1nc(-c2ccccc2)no1", "AC50": "> 160 µM (inactive)"},
      {"smiles": "CCOC(=O)C1CCN(C(=O)CN(Cc2ccccc2)S(C)(=O)=O)CC1", "AC50": "> 76 µM (inactive)"},
      {"smiles": "N#Cc1c(N)oc(-c2ccco2)c1-c1ccco1", "AC50": "> 160 µM (inactive)"},
      {"smiles": "O=C(NCc1ccco1)c1c2c(nc3ccccc13)CCC2", "AC50": "> 160 µM (inactive)"}
    ]},
    {"target": "Caspase recruitment domain-containing protein 9 (Homo sapiens) + E3 ubiquitin-protein ligase TRIM62 (Homo sapiens) (UniProt Q9H257+Q9BVG3)", "experiment": "CARD9/TRIM62 protein interaction inhibitors – cell lysate, HEK293FT lysates, Luminex bead readout, dose response (AID 1259338); on activity change, negative = inhibition: reference of the scale not given here", "settings": "Luminex bead PPI, MFI, at 38 µM (top of the series)", "values": [
      {"smiles": "Cc1cccc(Nc2nc(C(=O)Nc3cc(F)ccc3F)nc3ccccc23)c1", "activity change, negative = inhibition": "inactive"}
    ]},
    {"target": "Caspase recruitment domain-containing protein 9 (Homo sapiens) + E3 ubiquitin-protein ligase TRIM62 (Homo sapiens) (UniProt Q9H257+Q9BVG3)", "experiment": "CARD9/TRIM62 protein interaction inhibitors – cell lysate, HEK293FT lysates, Luminex bead readout, dose response (AID 1259338); on activity change, negative = inhibition: reference of the scale not given here", "settings": "Luminex bead PPI, MFI, at 80 µM (top of the series)", "values": [
      {"smiles": "Cc1cccc(NC(=O)Cc2coc3ccc4ccccc4c23)n1", "activity change, negative = inhibition": "inactive"},
      {"smiles": "O=C(CCn1cncn1)N1CCC(n2cc(-c3ccccn3)nn2)CC1", "activity change, negative = inhibition": "inactive"},
      {"smiles": "O=C(O)CCc1ccc(-c2cccs2)n1NC(=O)c1ccco1", "activity change, negative = inhibition": "inactive"},
      {"smiles": "N#Cc1c(NC(=O)CSc2nc3ccccc3o2)sc2c1CCC2", "activity change, negative = inhibition": "inactive"},
      {"smiles": "O=C(CCCN1C(=O)NC2(CCCC2)C1=O)Nc1ccc(F)cc1", "activity change, negative = inhibition": "inactive"},
      {"smiles": "Cc1ccc(Nc2nc(C(=O)Nc3ccc(Br)cc3)nc3ccccc23)cc1", "activity change, negative = inhibition": "inactive"},
      {"smiles": "CC(=O)Nc1ccc2nc3c(=O)n(C)c(=O)n(C)c3nc2c1", "activity change, negative = inhibition": "inactive"},
      {"smiles": "C[C@H](CO)N1C[C@H](C)[C@@H](CN(C)CC2CCCCC2)OCCCC[C@H](C)Oc2ccc(NS(=O)(=O)c3ccc(Cl)cc3)cc2C1=O", "activity change, negative = inhibition": "inactive"},
      {"smiles": "Nc1cc2c(cc1-n1cccc1)OCCO2", "activity change, negative = inhibition": "inactive"},
      {"smiles": "CCCCCn1c(NC(=O)c2ccco2)c(C(=O)OCC)c2nc3ccccc3nc21", "activity change, negative = inhibition": "inactive"},
      {"smiles": "Clc1ccc2nc(CN3CCCCCC3)cn2c1", "activity change, negative = inhibition": "inactive"},
      {"smiles": "Cc1ccc(S(=O)(=O)Nc2ccc3c(c2)C(=O)N([C@H](C)CO)C[C@H](C)[C@@H](CN(C)CC2CCCCC2)OCCCC[C@H](C)O3)cc1", "activity change, negative = inhibition": "inactive"},
      {"smiles": "Cc1ccc(-c2nc(C)sc2CC(=O)NCc2ccco2)cc1", "activity change, negative = inhibition": "inactive"},
      {"smiles": "CC1(C)Cc2c(c(N3CCOCC3)nc3sc(C(=O)NCc4ccco4)c(N)c23)CO1", "activity change, negative = inhibition": "inactive"},
      {"smiles": "O=C(COC(=O)c1cc(-c2ccco2)nc2ccccc12)NCc1ccccc1", "activity change, negative = inhibition": "inactive"},
      {"smiles": "O=C(Nc1ccc2c(c1)nc1n2CCN(C2CCCCC2)C1)c1ccco1", "activity change, negative = inhibition": "inactive"},
      {"smiles": "CCCOc1ccc(CCC(=O)O)cc1", "activity change, negative = inhibition": "inactive"},
      {"smiles": "CC1CCN(c2nc(-c3ccco3)c3c(c2C#N)CC(C)(C)OC3)CC1", "activity change, negative = inhibition": "inactive"},
      {"smiles": "CCNc1ncc(C(=O)NCCc2nc3c(s2)CCCC3)cn1", "activity change, negative = inhibition": "inactive"},
      {"smiles": "Fc1ccc(CSc2nnc(-c3cccnc3)n2Cc2ccco2)cc1", "activity change, negative = inhibition": "inactive"},
      {"smiles": "O=C(O)c1cc(-c2ccco2)nc2ccccc12", "activity change, negative = inhibition": "inactive"},
      {"smiles": "c1coc(-c2cn3ccc4ccccc4c3n2)c1", "activity change, negative = inhibition": "inactive"},
      {"smiles": "N#CNc1nc(O)cc(=O)[nH]1", "activity change, negative = inhibition": "inactive"},
      {"smiles": "CC(C(=O)N1CCCC1)N1CCN(c2ccccc2O)CC1", "note": "(centres undefined)", "activity change, negative = inhibition": "inactive"},
      {"smiles": "O=C(COc1cccnc1[N+](=O)[O-])c1ccc(Cl)s1", "activity change, negative = inhibition": "inactive"},
      {"smiles": "On1c(-c2ccco2)nc2c1CCc1nonc1-2", "activity change, negative = inhibition": "inactive"},
      {"smiles": "C[C@H](CO)N1C[C@H](C)[C@@H](CN(C)C(=O)C2CCCCC2)OCCCC[C@H](C)Oc2ccc(NS(=O)(=O)c3ccccc3)cc2C1=O", "activity change, negative = inhibition": "inactive"},
      {"smiles": "COc1ccc(N2Cc3cccc(C(=O)NC(C)CCc4ccco4)c3C2=O)cc1", "note": "(centres undefined)", "activity change, negative = inhibition": "inactive"},
      {"smiles": "Cc1ccc2c(c1)C(N1CCCC1=O)CC(c1ccco1)N2", "note": "(centres undefined)", "activity change, negative = inhibition": "inactive"},
      {"smiles": "O=S(=O)(Nc1nccs1)c1ccc(-n2cccc2)cc1", "activity change, negative = inhibition": "inactive"},
      {"smiles": "O=C(NCc1ccco1)[C@@H]1CSC2c3ccccc3C(=O)N21", "note": "(some centres undefined)", "activity change, negative = inhibition": "inactive"},
      {"smiles": "O=C(O)Cc1c[nH]c2cccc(O)c12", "activity change, negative = inhibition": "inactive"},
      {"smiles": "N#Cc1c2c(c(NCc3ccco3)n3c1nc1ccccc13)CCC2", "activity change, negative = inhibition": "inactive"},
      {"smiles": "O=C(O)COc1ccc(-n2cccc2)cc1", "activity change, negative = inhibition": "inactive"},
      {"smiles": "Cc1oc(CSCc2cc(C(=O)O)c(C)o2)cc1C(=O)O", "activity change, negative = inhibition": "inactive"},
      {"smiles": "CC(CCc1ccco1)N(C)S(=O)(=O)c1ccc2[nH]c(=O)ccc2c1", "note": "(centres undefined)", "activity change, negative = inhibition": "inactive"},
      {"smiles": "O=C(COC(=O)c1cc(-c2cccs2)nc2ccccc12)NCc1ccco1", "activity change, negative = inhibition": "inactive"},
      {"smiles": "O=S(=O)(Nc1nc2ccccc2nc1NCc1ccco1)c1ccccc1", "activity change, negative = inhibition": "inactive"},
      {"smiles": "CN(c1ccccc1C(=O)NCc1ccco1)S(C)(=O)=O", "activity change, negative = inhibition": "inactive"},
      {"smiles": "CC(C)(C)c1ccc(-c2nc(C#N)c(NCc3ccncc3)o2)cc1", "activity change, negative = inhibition": "inactive"},
      {"smiles": "Cc1cc(C(=O)NCc2ccco2)on1", "activity change, negative = inhibition": "inactive"},
      {"smiles": "Cc1noc(CN(C)C(=O)c2cc(-c3ccco3)nc3c(C)c(Cl)ccc23)n1", "activity change, negative = inhibition": "inactive"}
    ]}
  ]
}
